BindingDB's records for doi:10.7270/Q2Q52N1X (Vanderbilt Screening Center for GPCRs, Ion Channels and …, 2009)

biological target: T1, Solute carrier family 12 member 5 (Homo sapiens, UniProt Q9H2X9); experiment: KCC2 modulator potency by thallium flux, dose response, cell-based, HEK293 KCC2, FluoZin-2 fluorescence (AID 1736); details: not given
T1 sequence (Q9H2X9 whole entry): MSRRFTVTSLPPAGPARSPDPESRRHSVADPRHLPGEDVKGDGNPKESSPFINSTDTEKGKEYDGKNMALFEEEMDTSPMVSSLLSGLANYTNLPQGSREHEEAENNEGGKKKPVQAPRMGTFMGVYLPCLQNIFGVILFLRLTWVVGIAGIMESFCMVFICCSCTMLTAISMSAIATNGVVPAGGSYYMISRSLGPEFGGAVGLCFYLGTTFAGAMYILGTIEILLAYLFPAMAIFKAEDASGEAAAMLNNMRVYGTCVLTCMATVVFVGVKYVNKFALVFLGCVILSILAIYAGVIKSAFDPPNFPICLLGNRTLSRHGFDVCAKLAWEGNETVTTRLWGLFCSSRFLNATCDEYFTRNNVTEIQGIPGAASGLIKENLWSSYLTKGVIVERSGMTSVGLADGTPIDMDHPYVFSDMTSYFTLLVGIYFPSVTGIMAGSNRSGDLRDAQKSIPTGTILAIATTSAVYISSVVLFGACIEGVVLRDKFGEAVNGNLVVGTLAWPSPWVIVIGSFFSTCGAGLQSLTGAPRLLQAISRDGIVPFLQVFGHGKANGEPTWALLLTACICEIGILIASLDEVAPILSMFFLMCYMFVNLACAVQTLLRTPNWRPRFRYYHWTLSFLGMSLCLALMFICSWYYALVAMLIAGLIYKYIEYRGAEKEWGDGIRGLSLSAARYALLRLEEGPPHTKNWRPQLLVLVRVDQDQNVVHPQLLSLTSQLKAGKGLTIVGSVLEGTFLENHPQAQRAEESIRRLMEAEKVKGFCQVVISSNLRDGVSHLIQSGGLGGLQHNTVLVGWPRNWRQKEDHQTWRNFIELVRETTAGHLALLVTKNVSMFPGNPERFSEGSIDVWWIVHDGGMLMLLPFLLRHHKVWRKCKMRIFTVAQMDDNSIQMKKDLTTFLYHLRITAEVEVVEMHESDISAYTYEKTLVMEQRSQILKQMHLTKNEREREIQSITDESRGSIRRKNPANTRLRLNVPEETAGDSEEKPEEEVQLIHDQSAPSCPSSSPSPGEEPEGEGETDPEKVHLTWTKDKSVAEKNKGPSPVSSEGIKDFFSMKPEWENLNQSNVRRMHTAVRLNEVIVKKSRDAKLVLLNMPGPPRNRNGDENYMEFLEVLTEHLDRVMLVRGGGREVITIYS

First: O=[N+]([O-])c1ccccc1C=C[CH+][N-]n1c(-c2ccc(Cl)cc2)n[nH]c1=S [MLS000555506]
Second: CNC(=O)/C(=C\C=C\c1ccccc1)NC(=O)c1ccc([N+](=O)[O-])cc1 [MLS000570424]
The EC50 of the first is 4.4-fold higher: 14.1 µM for the first, 3.2 µM for the second. The second is the more potent here.

`O=C(CSc1nccc(=O)[nH]1)N1CCc2ccccc2C1` [SMR000124078] and `COc1cc(OC)c(C2=NOC(C(=O)N3CCc4ccccc4C3)C2)cc1Cl` (centres undefined) [2-{[3-(5-chloro-2,4-dimethoxyphenyl)-4,5-dihydro-5-isoxazolyl]carbonyl}-1,2,3,4-tetrahydroisoquinoline] are within 1.5-fold of each other in EC50: 9.12 µM for the first, 8.15 µM for the second.

Going from `Cc1ccc(S(=O)(=O)N(CCC(=O)O)Cc2ccc(Cl)cc2)cc1` [3-[(4-chlorobenzyl)-tosyl-amino]propionic acid] to `O=C(O)CCN(Cc1ccccc1)S(=O)(=O)c1c(Cl)cccc1Cl` [3-[(2,6-dichlorophenyl)sulfonyl-(phenylmethyl)amino]propanoic acid], the EC50 rises from 0.356 µM to 53.1 µM (150-fold).

`O=C(NCCCCc1ccccc1)C1CC(c2ccccc2[N+](=O)[O-])=NO1` (centres undefined) [3-(2-nitrophenyl)-N-(4-phenylbutyl)-2-isoxazoline-5-carboxamide] and `COc1cc(OC)c(C2=NOC(C(=O)NCCc3ccccc3)C2)cc1Cl` (centres undefined) [3-(5-chloranyl-2,4-dimethoxy-phenyl)-N-(2-phenylethyl)-4,5-dihydro-1,2-oxazole-5-carboxamide] are within 1.5-fold of each other in EC50: 8.63 µM for the first, 6.25 µM for the second.

Compared with `O=C(NNc1nc(-c2ccccc2)cs1)c1cccs1` [MLS000858987], `N#CC(C(=O)COc1ccccc1)c1nc2ccccc2s1` (centres undefined) [(2Z)-2-(3H-1,3-benzothiazol-2-ylidene)-3-keto-4-phenoxy-butyronitrile] is 26-fold higher in EC50: 0.252 µM for the first, 6.56 µM for the second. The first is the more potent here.

First: O=C(O)c1cc(-c2ccc(F)cc2F)ccc1O
Second: O=C(NCCOc1ccccc1F)c1ccccc1SCc1ccc(F)cc1 [2-[(4-fluorobenzyl)thio]-N-[2-(2-fluorophenoxy)ethyl]benzamide]
The EC50 of the first is 34-fold higher: 10.6 µM for the first, 0.313 µM for the second.

Going from `O=C(NCc1cccs1)c1nc2c(nnn2Cc2ccc(F)cc2)c(=O)[nH]1` [MLS000074753] to `NC(=S)NN=C1C(=O)N(Cc2ccc(F)cc2)c2ccccc21` [1-[(Z)-[1-[(4-fluorophenyl)methyl]-2-oxidanylidene-indol-3-ylidene]amino]thiourea], the EC50 rises from 9.9 µM to 38 µM (3.8-fold). The first is the more potent here.

Going from `O=C(CSc1nnc(Cc2ccccc2)o1)c1ccc(F)cc1` [1-(4-fluorophenyl)-2-[[5-(phenylmethyl)-1,3,4-oxadiazol-2-yl]sulfanyl]ethanone] to `O=C(CSc1ccc(-c2ccccc2)nn1)Nc1ccc2c(c1)OCCO2` [MLS000724887], the EC50 rises from 3.85 µM to 31 µM (8.1-fold).

Going from `CC1CCN(C(=O)CSc2ccc(-c3ccc(F)cc3)nn2)CC1` [2-[6-(4-Fluoro-phenyl)-pyridazin-3-ylsulfanyl]-1-(4-methyl-piperidin-1-yl)-ethanone] to `CC1CCCCN1C(=O)CSc1ccc(-c2ccc(F)cc2)nn1` (centres undefined) [2-[6-(4-Fluoro-phenyl)-pyridazin-3-ylsulfanyl]-1-(2-methyl-piperidin-1-yl)-ethanone], the EC50 rises from 3.08 µM to 8190 µM (2700-fold).

Compared with `O=C(NCc1cccnc1)c1ccc(COc2ccc(Cl)cc2Cl)o1` [5-[(2,4-dichlorophenoxy)methyl]-N-(3-pyridinylmethyl)-2-furancarboxamide], `O=C(Nc1cccnc1)c1ccc(COc2cc(Cl)ccc2Cl)o1` [5-[(2,5-dichlorophenoxy)methyl]-N-(3-pyridinyl)-2-furancarboxamide] is 19-fold lower in EC50: 2060 µM for the first, 106 µM for the second. The second is the more potent here.

Going from `c1ccc(-n2cnc3cc(NCc4ccncc4)ccc32)cc1` [(1-phenylbenzimidazol-5-yl)-(4-pyridylmethyl)amine] to `O=C(Nc1ccc(Cc2ccncc2)cc1)c1cccc([N+](=O)[O-])c1` [3-Nitro-N-(4-pyridin-4-ylmethyl-phenyl)-benzamide], the EC50 rises from 5.54 µM to 9.28 µM (1.7-fold).

Going from `c1ccc(-c2nnc(Sc3ncnc4c3cnn4-c3ccccc3)[nH]2)cc1` [SMR000019566] to `O=c1c(-c2cnn(-c3ccccc3)c2)coc2cc(O)ccc12` [7-hydroxy-3-(1-phenyl-1H-pyrazol-4-yl)-4H-chromen-4-one], the EC50 rises from 12.3 µM to 20.1 µM (1.6-fold). The first is the more potent here.

Going from `Cc1ccc2c(c1)nnn2C1CCN(S(=O)(=O)c2cccc(S(=O)(=O)N(C)C)c2)CC1` [MLS000033642] to `Cc1ccc(NC(=O)CCCSc2ccccc2)cc1S(=O)(=O)N1CCOCC1` [MLS000761060], the EC50 rises from 4.09 µM to 408 µM (100-fold).

First: O=C(c1ccc(-c2ccccc2)cc1)C1CCCN(Cc2ccncc2)C1 (centres undefined) [(4-phenylphenyl)-[1-(4-pyridylmethyl)-3-piperidyl]methanone]
Second: O=S1(=O)N=C(N2CCN(Cc3ccccc3)CC2)c2ccccc21 [3-(4-Benzyl-piperazin-1-yl)-benzo[d]isothiazole 1,1-dioxide]
The EC50 of the first is 2.4-fold higher: 7.52 µM for the first, 3.19 µM for the second.

Going from `NC(=S)NN=C1C(=O)N(Cc2ccccc2)c2ccccc21` [1-[(Z)-[2-oxidanylidene-1-(phenylmethyl)indol-3-ylidene]amino]thiourea] to `Oc1ccccc1CN=Nc1nc2ccccc2o1` [(6E)-6-[(1,3-benzoxazol-2-ylhydrazo)methylidene]-1-cyclohexa-2,4-dienone], the EC50 rises from 0.618 µM to 3040 µM (4900-fold).

Going from `O=C(CC(Cc1ccccc1)c1ccco1)NC1CCCCC1` (centres undefined) [MLS000556612] to `O=C(CSc1ccccc1C(=O)NCc1ccccc1)NC12CC3CC(CC(C3)C1)C2`, the EC50 rises from 2.68 µM to 5.21 µM (1.9-fold). The first is the more potent here.

First: O=C(Nc1cccnc1)c1ccc(COc2ccccc2Br)o1 [5-[(2-bromanylphenoxy)methyl]-N-pyridin-3-yl-furan-2-carboxamide]
Second: COc1cc(C=NNC(=O)CN(Cc2ccccc2)S(=O)(=O)c2ccc3c(c2)OCCO3)ccc1O [2,3-Dihydro-benzo[1,4]dioxine-6-sulfonic acid benzyl-(4-hydroxy-3-methoxy-benzylidene-hydrazinocarbonylmethyl)-amide]
The EC50 of the first is 1.6-fold higher: 5.19 µM for the first, 3.15 µM for the second.

First: CCOC(=O)c1sc(Nc2nc3c(OC)cccc3s2)nc1C [SMR000027213]
Second: Cc1cccc(OCCc2nnc(N)s2)c1C [5-[2-(2,3-Dimethyl-phenoxy)-ethyl]-[1,3,4]thiadiazol-2-ylamine]
The EC50 of the first is 3-fold higher: 155 µM for the first, 52.3 µM for the second.

Going from `COc1ccc(N(CC(=O)Nc2cccc(C)c2C)S(=O)(=O)c2c(C)n[nH]c2C)cc1` [N-(2,3-dimethylphenyl)-2-[(3,5-dimethyl-1H-pyrazol-4-yl)sulfonyl-(4-methoxyphenyl)amino]ethanamide] to `Cc1ccc(Nc2nnc(SCC(=O)c3ccc(Br)s3)s2)c(C)c1` [1-(5-bromanylthiophen-2-yl)-2-[[5-[(2,4-dimethylphenyl)amino]-1,3,4-thiadiazol-2-yl]sulfanyl]ethanone], the EC50 falls from 15.7 µM to 1.02 µM (15-fold).

First: CC1Cc2ccccc2N1C(=O)c1ccc(N2CCCCC2)c([N+](=O)[O-])c1 (centres undefined) [(2-methyl-2,3-dihydroindol-1-yl)-(3-nitro-4-piperidin-1-yl-phenyl)methanone]
Second: O=C(NN=Cc1ccc(Cl)s1)C1COc2ccccc2O1 (centres undefined) [2,3-Dihydro-benzo[1,4]dioxine-2-carboxylic acid [1-(5-chloro-thiophen-2-yl)-meth-(Z)-ylidene]-hydrazide]
The EC50 of the first is 21-fold lower: 1.59 µM for the first, 32.7 µM for the second.

For `COC(=O)c1sccc1NC(=S)OC` [3-(methoxycarbothioylamino)thiophene-2-carboxylic acid methyl ester], the EC50 was 3.94 µM.

same assay, conditions: inactive by the depositor's call

`Cc1cc(Cl)ccc1Oc1ccccc1C(=O)CC#N` [3-[2-(4-chloranyl-2-methyl-phenoxy)phenyl]-3-oxidanylidene-propanenitrile] and `COc1ccc(/C=C2\CCc3ccccc3C2=O)cc1CN1CCOCC1` [(2E)-2-[4-methoxy-3-(morpholinomethyl)benzylidene]tetralin-1-one] are within 1.5-fold of each other in EC50: 233 µM for the first, 219 µM for the second.

First: COc1ccc(CN(C(=O)c2ccc(-c3ccccc3)[nH]2)C(C(=O)NC(C)(C)C)c2ccncc2)cc1 (centres undefined) [SMR000279859]
Second: COc1ccc(S(=O)(=O)N(CCC(=O)O)Cc2ccccc2)cc1 [3-[(4-methoxyphenyl)sulfonyl-(phenylmethyl)amino]propanoic acid]
The EC50 of the first is 5.4-fold higher: 34.4 µM for the first, 6.36 µM for the second.

Compared with `COc1ccc(N(CC(=O)Nc2ccc(C)c(C)c2)S(=O)(=O)c2c(C)n[nH]c2C)cc1` [SMR000027403], `CN(C)S(=O)(=O)N(CC(=O)NCCSCc1ccccc1)c1ccccc1` [2-[N-(dimethylsulfamoyl)anilino]-N-[2-(phenylmethylthio)ethyl]acetamide] is 1.9-fold lower in EC50: 35.1 µM for the first, 18.7 µM for the second.

Going from `CSc1ccc(NC(=O)NCCN2CCc3ccccc3C2)cc1` [1-[2-(3,4-dihydro-1H-isoquinolin-2-yl)ethyl]-3-(4-methylsulfanylphenyl)urea] to `CC1=NN(C(=O)c2ccc(Br)cc2)C(O)(C(F)(F)OC(F)(F)F)C1` (centres undefined) [[5-[bis(fluoranyl)-(trifluoromethyloxy)methyl]-3-methyl-5-oxidanyl-4H-pyrazol-1-yl]-(4-bromophenyl)methanone], the EC50 falls from 21.5 µM to 6.18 µM (3.5-fold).
